Results on four compounds are retold here after ChEMBL document CHEMBL1201862, “PubChem BioAssay data set” (2004).

Structures are written as SMILES. The source made the active and inactive calls. Unless noted, no cut-off for these calls is given here.

Assay [1] addresses T1, Short transient receptor potential channel 4 (Mus musculus, UniProt Q9QUQ5).
T1 sequence (Q9QUQ5 whole entry): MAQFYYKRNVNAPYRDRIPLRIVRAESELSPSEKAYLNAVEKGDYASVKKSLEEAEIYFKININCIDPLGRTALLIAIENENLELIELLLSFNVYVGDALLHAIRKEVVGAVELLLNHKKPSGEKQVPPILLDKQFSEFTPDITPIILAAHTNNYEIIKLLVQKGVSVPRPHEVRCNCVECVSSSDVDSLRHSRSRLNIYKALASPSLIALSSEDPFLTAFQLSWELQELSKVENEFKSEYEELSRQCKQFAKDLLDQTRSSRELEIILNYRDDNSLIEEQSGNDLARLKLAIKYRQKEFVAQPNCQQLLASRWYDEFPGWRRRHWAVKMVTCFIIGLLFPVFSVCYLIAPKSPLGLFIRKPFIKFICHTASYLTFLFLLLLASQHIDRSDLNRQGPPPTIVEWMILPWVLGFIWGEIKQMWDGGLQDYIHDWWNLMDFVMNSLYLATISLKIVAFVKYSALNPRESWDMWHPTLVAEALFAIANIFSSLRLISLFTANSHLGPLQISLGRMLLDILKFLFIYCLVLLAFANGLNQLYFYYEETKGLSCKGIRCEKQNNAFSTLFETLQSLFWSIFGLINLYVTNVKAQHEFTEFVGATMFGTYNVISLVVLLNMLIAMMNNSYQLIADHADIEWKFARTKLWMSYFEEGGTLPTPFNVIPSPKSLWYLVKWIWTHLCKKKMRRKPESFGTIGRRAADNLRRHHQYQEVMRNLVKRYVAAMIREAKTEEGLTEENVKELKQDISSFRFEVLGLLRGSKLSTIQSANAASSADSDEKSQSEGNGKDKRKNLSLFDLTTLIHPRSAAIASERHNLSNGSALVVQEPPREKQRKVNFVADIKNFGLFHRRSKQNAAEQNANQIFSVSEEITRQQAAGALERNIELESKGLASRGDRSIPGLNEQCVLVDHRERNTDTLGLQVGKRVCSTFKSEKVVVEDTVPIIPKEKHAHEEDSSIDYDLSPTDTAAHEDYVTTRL
As to the kind of experiment: block of DAMGO-driven TRPC4 calcium entry – cell-based, HEK293 TRPC4/mu-opioid, Fluo-4 calcium, dose response (AID 434942).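 Note: potency of inhibitors blocking the TRPC4 calcium response.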 It counts as functional.

Assay [2] in a line: reduced cellular PGC1a acetyl-lysine signal – cell-based, cherry-picked samples, dose response (AID 720514).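 Note: potency may reflect raised or lowered acetylation signal.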 It counts as functional.
The nature of assay [3]: Trypanosoma cruzi growth suppression in host cells – NIH3T3 host cells, beta-gal luminescence, confirmation (AID 2044).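 Note: intracellular parasites grown in NIH/3T3 mouse fibroblasts as host cells; luminescent beta-galactosidase reporter signal from transgenic T. cruzi replicating inside host cells; inhibitors lower the luminescence signal.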 It counts as functional, cell-based.
The nature of assay [4]: NIH3T3 cell viability loss – ATP luminescence, mouse fibroblasts, counter-screen, dose response (AID 2010).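 Note: cells exposed to compound for about 90 hours before reading.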 Format: functional, cell-based.
Assay [5] is described as follows: IC50 of Artemis nuclease activity blockers – biochemical, fluorescence intensity, dose response (AID 720701).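 Note: Artemis endonuclease enzyme.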 Format: functional.
For assay [6], the target named is Kappa-type opioid receptor (Homo sapiens, UniProt P41145). Nature of the assay: Late-stage fluorescence-based cell-based dose response assay for antagonists of kappa opioid receptor 1 (OPRK1). It counts as functional.
Sequence of Kappa-type opioid receptor (P41145 whole entry): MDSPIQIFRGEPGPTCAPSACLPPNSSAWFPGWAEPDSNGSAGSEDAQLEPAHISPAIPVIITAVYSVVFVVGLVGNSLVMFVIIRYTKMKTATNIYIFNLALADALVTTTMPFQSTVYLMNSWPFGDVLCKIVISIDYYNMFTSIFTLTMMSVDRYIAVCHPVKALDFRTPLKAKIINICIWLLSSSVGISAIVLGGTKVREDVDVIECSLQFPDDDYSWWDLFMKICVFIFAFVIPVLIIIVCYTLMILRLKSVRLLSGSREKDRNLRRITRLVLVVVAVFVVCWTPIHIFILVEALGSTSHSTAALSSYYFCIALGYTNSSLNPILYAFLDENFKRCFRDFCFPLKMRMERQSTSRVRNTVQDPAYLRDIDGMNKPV
For assay [7], the target named is Delta-type opioid receptor (Homo sapiens, UniProt P41143). As to the kind of experiment: Late-stage results from the probe development effort to identify antagonists of OPRK1: fluorescence-based cell-based dose response OPRD1 counterscreen, Set 2. Format: functional.
Sequence of Delta-type opioid receptor (P41143 whole entry): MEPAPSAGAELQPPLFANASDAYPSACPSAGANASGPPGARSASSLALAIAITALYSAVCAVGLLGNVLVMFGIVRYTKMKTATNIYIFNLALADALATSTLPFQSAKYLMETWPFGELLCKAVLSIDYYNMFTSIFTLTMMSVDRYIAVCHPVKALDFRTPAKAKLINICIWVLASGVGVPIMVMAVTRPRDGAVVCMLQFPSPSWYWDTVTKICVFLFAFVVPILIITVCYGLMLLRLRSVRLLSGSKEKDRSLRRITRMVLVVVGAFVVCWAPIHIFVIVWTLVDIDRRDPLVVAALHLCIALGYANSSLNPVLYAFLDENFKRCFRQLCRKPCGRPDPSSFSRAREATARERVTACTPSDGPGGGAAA
Assay [8] concerns the target Sphingosine 1-phosphate receptor 1 (Homo sapiens, UniProt P21453). As to the kind of experiment: Late-stage counterscreen for antagonists of kappa opioid receptor 1 (OPRK1): fluorescence-based cell-based dose response assay to identify antagonists of Sphingosine 1-Phosphate Receptor 1 (S1P1). Format: functional.
The target of another assay is Mu-type opioid receptor (Homo sapiens, UniProt P35372). Nature of the assay: Late-stage results from the probe development effort to identify antagonists of OPRK1: luminescence-based cell-based dose response OPRM1 counterscreen, Set 2. Format: functional.
Sequence of Mu-type opioid receptor (P35372 whole entry): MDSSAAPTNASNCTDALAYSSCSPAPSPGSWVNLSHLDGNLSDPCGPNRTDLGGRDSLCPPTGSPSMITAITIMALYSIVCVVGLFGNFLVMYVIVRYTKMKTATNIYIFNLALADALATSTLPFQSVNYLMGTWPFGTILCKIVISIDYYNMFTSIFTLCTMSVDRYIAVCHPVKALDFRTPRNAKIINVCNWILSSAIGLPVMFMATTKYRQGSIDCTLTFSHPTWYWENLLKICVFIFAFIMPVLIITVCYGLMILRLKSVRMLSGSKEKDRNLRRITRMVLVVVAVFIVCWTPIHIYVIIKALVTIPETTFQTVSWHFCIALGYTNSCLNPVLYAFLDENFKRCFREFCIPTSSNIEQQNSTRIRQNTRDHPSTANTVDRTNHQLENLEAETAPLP
A further assay has as its system HEK293. Nature of the assay: viability loss in HEK293T cells – cell-based, ATP luminescence, cherry-pick samples, cytotoxicity control, dose response (AID 687005).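 Note: cells exposed to compound for 48 hours.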 It counts as functional. Particulars: Homo sapiens.
The nature of assay [9]: HEK293 Cytotoxicity Assay Measured in Cell-Based System Using Plate Reader - 7071-01_Inhibitor_Dose_CherryPick_Activity_Set2. It counts as functional.
In a further assay the test system is HeLa. Nature of the assay: viability loss in HeLa cells – cell-based, ATP luminescence, cherry-pick samples, cytotoxicity control, dose response (AID 687004). Format: functional. The settings on record: Homo sapiens.

Sequence of Sphingosine 1-phosphate receptor 1 (P21453 whole entry): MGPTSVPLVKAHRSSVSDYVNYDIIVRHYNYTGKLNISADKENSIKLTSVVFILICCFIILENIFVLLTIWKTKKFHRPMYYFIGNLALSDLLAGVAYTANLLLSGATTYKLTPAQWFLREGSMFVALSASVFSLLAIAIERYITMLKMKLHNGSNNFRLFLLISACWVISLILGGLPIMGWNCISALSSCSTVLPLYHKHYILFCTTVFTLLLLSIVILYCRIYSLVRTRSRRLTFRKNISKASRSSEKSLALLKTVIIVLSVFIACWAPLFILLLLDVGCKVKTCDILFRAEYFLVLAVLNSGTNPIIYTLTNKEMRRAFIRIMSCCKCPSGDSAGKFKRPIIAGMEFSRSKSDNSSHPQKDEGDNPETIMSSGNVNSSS

Regarding `CCOC(=O)C1(Cc2cccc(F)c2)CCN(Cc2c(C)nn(CC)c2C)CC1`, the EC50 in assay [1] is 1.06 µM (active). Moreover, the AC50 in assay [2] was 28.8 µM (active).

Turning to `CCOC(=O)c1c(NC(=O)CSc2n[nH]c3c4ccccc4nc-3n2)sc2c1CCN(C)C2`, the EC50 in assay [3] is 0.161 µM (active); in assay [4], > 60 µM (not active). Moreover, the IC50 in assay [5] was 10 µM (active).

As for `COc1cc([N+](=O)[O-])c(OC)cc1SCc1nnc(S)n1-c1ccc(C)cc1`, the IC50 in assay [6] was 2.2 µM (active); in assay [7], > 50 µM (inactive); in [8], > 50 µM (inactive); at Mu-type opioid receptor, > 50 µM (inactive).

In the case of `Cc1cccc(-c2ccc([C@@H]3[C@H]4CN(C(=O)c5ccc6c(c5)OCO6)CCCCN4[C@H]3CO)cc2)c1`, the values for the AC50 (with HEK293; in [9]; in the assay on HeLa) were 8.23 µM (active), 8.23 µM (active) and 20.2 µM (active), respectively.
